Measured values taken from patent US9714252B2, “Cyclic sulfonamides as sodium channel blockers” (priority 2012, dated 2017).

The molecules below were run against human Nav1.7 (Homo sapiens (Human), UniProt Q15858) (assay: FLIPR sodium dye assay (CoroNa Green) with KCl and test article pre-incubation, recombinant Nav1.7/HEK293 cells). Settings: not given.
Chain of human Nav1.7 (Q15858 with tags, fused parts or gaps limits assumed): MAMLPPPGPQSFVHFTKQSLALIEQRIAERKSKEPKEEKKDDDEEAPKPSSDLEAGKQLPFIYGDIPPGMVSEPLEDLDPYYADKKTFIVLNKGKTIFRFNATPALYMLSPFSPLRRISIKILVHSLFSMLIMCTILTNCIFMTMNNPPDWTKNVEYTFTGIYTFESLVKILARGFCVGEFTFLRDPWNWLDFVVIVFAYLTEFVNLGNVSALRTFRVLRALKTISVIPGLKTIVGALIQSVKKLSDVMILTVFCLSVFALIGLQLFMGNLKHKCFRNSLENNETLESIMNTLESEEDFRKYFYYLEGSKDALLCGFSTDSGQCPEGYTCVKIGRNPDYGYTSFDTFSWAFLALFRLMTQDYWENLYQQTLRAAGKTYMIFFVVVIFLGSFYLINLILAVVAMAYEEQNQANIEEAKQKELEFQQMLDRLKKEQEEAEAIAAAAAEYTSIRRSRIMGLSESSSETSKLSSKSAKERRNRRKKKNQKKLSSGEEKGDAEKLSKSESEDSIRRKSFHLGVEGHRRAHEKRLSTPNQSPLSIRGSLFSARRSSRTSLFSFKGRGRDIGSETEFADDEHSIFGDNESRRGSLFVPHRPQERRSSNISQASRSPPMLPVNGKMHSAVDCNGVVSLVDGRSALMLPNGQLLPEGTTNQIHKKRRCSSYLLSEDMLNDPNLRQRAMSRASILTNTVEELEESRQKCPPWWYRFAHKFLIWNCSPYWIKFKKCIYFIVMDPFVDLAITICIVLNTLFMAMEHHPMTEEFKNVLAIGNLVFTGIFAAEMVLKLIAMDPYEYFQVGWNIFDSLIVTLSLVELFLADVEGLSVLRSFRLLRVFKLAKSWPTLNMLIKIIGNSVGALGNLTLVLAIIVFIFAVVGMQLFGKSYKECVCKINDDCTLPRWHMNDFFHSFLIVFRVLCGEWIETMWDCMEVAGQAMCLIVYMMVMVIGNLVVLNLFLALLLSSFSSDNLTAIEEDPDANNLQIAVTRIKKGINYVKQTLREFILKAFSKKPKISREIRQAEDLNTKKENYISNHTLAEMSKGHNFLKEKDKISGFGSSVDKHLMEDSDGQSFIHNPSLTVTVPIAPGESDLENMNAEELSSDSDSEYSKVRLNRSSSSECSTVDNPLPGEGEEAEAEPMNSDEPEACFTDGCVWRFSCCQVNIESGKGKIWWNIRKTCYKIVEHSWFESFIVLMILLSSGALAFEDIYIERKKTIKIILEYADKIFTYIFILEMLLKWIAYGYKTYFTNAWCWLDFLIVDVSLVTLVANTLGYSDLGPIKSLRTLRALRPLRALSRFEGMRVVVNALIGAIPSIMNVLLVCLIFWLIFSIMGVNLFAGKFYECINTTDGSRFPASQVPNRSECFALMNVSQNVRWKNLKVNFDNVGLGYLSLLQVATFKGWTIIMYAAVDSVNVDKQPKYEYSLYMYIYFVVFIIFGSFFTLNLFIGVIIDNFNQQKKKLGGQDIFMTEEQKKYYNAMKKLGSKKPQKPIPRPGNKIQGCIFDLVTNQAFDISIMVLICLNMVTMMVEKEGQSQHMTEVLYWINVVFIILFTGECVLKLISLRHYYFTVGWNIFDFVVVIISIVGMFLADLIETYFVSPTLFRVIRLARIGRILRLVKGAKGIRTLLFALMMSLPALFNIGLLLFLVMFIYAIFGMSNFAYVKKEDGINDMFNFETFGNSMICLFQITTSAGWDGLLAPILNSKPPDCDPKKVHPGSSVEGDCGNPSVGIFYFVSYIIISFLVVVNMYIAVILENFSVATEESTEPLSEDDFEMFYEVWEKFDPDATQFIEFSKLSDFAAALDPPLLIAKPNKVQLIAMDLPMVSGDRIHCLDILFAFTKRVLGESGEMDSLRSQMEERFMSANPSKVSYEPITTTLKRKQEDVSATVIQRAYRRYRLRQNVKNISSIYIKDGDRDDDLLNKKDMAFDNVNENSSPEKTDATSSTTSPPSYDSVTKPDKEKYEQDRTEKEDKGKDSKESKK
Format: cell-based
O=S1(=O)c2ccc(N3CCC4(CC3)OCc3ccccc34)cc2CCN1c1nccs1 [Compound 5, 6-(3H-spiro[isobenzofuran-1,4′-piperidin]-1′-yl)-2-(thiazol-2-yl)-3,4-dihydro-2H-benzo[e][1,2]thiazine 1,1-dioxide] was tested, and the IC50 was 0.766 µM. O=S1(=O)c2ccc(Oc3ccccc3-c3ccccc3)cc2CCN1c1nccs1 [Compound 6, 6-([1,1′-biphenyl]-2-yloxy)-2-(thiazol-2-yl)-3,4-dihydro-2H-benzo[e][1,2]thiazine 1,1-dioxide] showed an IC50 of 1.7 µM.

Same assay, conditions: recombinant human Nav1.7 in HEK293; veratridine + scorpion venom stimulation
O=S1(=O)c2ccc(Oc3ccccc3-c3ccccc3)cc2CN1c1nccs1 [Compound 2, 5-([1,1′-biphenyl]-2-yloxy)-2-(thiazol-2-yl)-2,3-dihydrobenzo[d]isothiazole 1,1-dioxide] was tested, and the IC50 was over 20 µM. In the case of O=S1(=O)c2ccc(Oc3ccc(C(F)(F)F)cc3-c3ccnnc3)cc2CN1c1nccs1 [Compound 1, 5-(2-(pyridazin-4-yl)-4-(trifluoromethyl)phenoxy)-2-(thiazol-2-yl)-2,3-dihydrobenzo[d]isothiazole 1,1-dioxide], the IC50 is reported as 1.74 µM. Work on O=S1(=O)c2ccc(-c3ccc(Oc4ccc(C(F)(F)F)cc4)cc3)cc2CCN1c1nccs1 [Compound 7, 2-(thiazol-2-yl)-6-(4-(4-(trifluoromethyl)phenoxy)phenyl)-3,4-dihydro-2H-benzo[e][1,2]thiazine 1,1-dioxide] yielded an IC50 of 7.09 µM. Work on O=S1(=O)c2ccc(N3CCC4(CC3)OCc3ccccc34)cc2CN1c1nccs1 [Compound 4, 5-(3H-spiro[isobenzofuran-1,4′-piperidin]-1′-yl)-2-(thiazol-2-yl)-2,3-dihydrobenzo[d]isothiazole 1,1-dioxide] yielded an IC50 of 1.38 µM. Molecule Cn1nccc1-c1cc(Cl)ccc1Oc1ccc2c(c1)CN(c1nccs1)S2(=O)=O [Compound 3, 5-(4-chloro-2-(1-methyl-1H-pyrazol-5-yl)phenoxy)-2-(thiazol-2-yl)-2,3-dihydrobenzo[d]isothiazole 1,1-dioxide] has an IC50 of 9.1 µM.
